The source of these data is US20160368943A1, “SUBSTITUTED PURINE COMPOUNDS” (EPIZYME, INC., priority 2013, published 2016).

Read-outs that look alike come from different tables or passages of the source.

Data set [1] in a line: Hepatocyte stability, rat. Format: in vitro ADME, Sprague-Dawley rat. How it is done:
(§1) Human, Beagle dog, Sprague-Dawley rat, and CD-1 mouse cryopreserved hepatocytes were obtained from XenoTech and stored at −150° C. until use. The hepatocytes were thawed and prepared according to the vendor's instructions, pooled into Krebs Henseleit buffer (KHB, pH 7.4), and kept on ice prior to initiating an experiment. […] The reaction mixture was incubated in a shaking water bath at 37° C. Aliquots of the incubation solutions were sampled at 0, 15, 30, 60, and 120 minutes. The reaction was immediately terminated by the addition of three volumes of ice-cold acetonitrile containing 0.1% formic acid and internal standards. After centrifugation at 1640×g for 10 minutes, the supernatants were transferred into HPLC vials, and the test compound was analyzed by LC-MS/MS. Positive controls, testosterone (20 μM) and 7-hydroxycoumarin (100 μM), were performed in parallel to confirm the enzyme activities of the hepatocytes used.
(§2) Experimental half-lives were transformed to the corresponding intrinsic clearance values and subsequently scaled to predicted in vivo clearance values, using the well-stirred model as previously described (Houston, Biochemical Pharmacology 47(9): 1469-1479, 1994; Obach, Drug Metabolism and Disposition 27(11): 1350-1359, 1999), with appropriate species-specific scaling factors (Barter et al., Current Drug Metabolism 8(1): 33-45, 2007).

In data set [2] the test system is MLL-rearranged leukemia xenograft. The note with it: cited from earlier work.
Data set [3] in a line: Plasma protein binding by equilibrium dialysis, human. The following applies: both sexes, pH 7.4, read-out: Plasma free fraction. Format: in vitro ADME. How it is done:
Plasma protein binding was assessed by equilibrium dialysis, utilizing the HT-dialysis cell format with a cellulose semi permeable membrane (molecular weight cut off of 5000 Da). Plasma was warmed to 37° C. and adjusted to pH 7.4 before use. Male Sprague-Dawley rat, male Beagle dog, male CD-1 mouse and mixed sex human plasma was used for the studies. A 5 μM test compound solution was prepared in isotonic phosphate buffer and rat, dog, mouse and human plasma (final DMSO concentration of 0.5%). The plasma-containing solution was introduced to one side of the membrane, and the plasma-free on the other. Incubations were performed for 2-16 hours in duplicate in order to allow the compound to reach equilibrium. Haloperidol was included as the control compound for each species. At the end of the equilibration time the cells were emptied. Following protein precipitation, the samples were centrifuged and analyzed by LC-MS/MS. The samples from the protein containing compartment were quantified using calibration standards prepared in plasma and the protein free compartments were quantified using calibration standards prepared in dialysis buffer.
A general note: In equilibrium dialysis only unbound substance equilibrates across the membrane.

Data set [4] in a line: MDCK cell permeability, native cells. Format: in vitro ADME. The following applies: dog, Basolateral-to-apical. Here is the method:
(§3) Samples were taken from the donor and receiver chambers at 120 minutes. Each determination was performed in duplicate. Co-dosed lucifer yellow flux was also measured for each monolayer to ensure cell monolayers remained intact during the incubation. All samples were assayed by LC-MS/MS.

In data set [5] the test system is MDR1-MDCK (P-glycoprotein) cells. Kind of data set: MDCK cell permeability, MDR1-transfected cells. The format is in vitro ADME, dog. The note with it: from relative efflux ratio, transfected vs native cells. Here is the method:
as §3

A further data set concerns P-glycoprotein (MDR1). Briefly: MDCK cell permeability, MDR1-transfected cells. Format: in vitro ADME, dog. The following applies: dog, 10 uM. Here is the method:
as §3

A short description of data set [6]: Pharmacokinetic study in dog. Format: in vivo, Beagle dog. The note with it: 1 mg/kg. Here is the method:
IV doses were administered by a single intravenous infusion over 1 minute into the cephalic vein in a 10% ethanol and 90% saline vehicle. At designated time points (predose, 0.083, 0.25, 0.5, 1, 2, 4, 8 and 24 h p.d.), the animals were restrained manually, and approximately 0.5 mL blood per time point was collected from non-injected cephalic vein into pre-cold EDTA-K2 tubes. Blood samples were put on wet ice and centrifuged at 4° C. to obtain plasma within 15 minutes of sample collection. The levels of Compound A were quantitated in dog plasma by LC-MS/MS analysis. […] Typically, samples were injected onto an LC-MS/MS system using a Waters BEH Phenyl column. The aqueous mobile phase was water with 0.1% NH4OH (A), and the organic mobile phase was acetonitrile with 0.1% NH4OH (B). The gradient was as follows: 37% B for the first 0.2 min, increased to 44% B from 0.2 to 0.6 min, maintained at 44% B for 0.5 min, and decreased to 37% B within 0.05 min. The injection volume was 2 uL, and the total run time was 1.5 min with a flow rate of 0.6 mL/min. […] The ionization was conducted in the positive ion mode using the MRM transition [M+H]+m/z 563.5 parent ion to m/z 326.3 daughter ion, incorporating a turbo-ionspray interface. Eight to ten calibration standards were prepared in blank plasma of the relevant species providing a typical standard curve concentration range of 5-500 ng/mL. Pharmacokinetic parameters were calculated by noncompartmental methods using WinNonlin (version 5.3; Pharsight, St. Louis, Mo.). Parameters are presented as mean±S.D.

A short description of data set [7]: Liver microsome stability, rat. The format is in vitro ADME. Here is the method: (§4) The final incubation volume was 50 μL. Control incubations were included for each species where 0.1 M phosphate buffer pH 7.4 was added instead of NADPH (minus NADPH). Two control compounds were included for each species. […] The control (minus NADPH) was incubated for 45 minutes only. The reactions were stopped by transferring 25 μL of incubate to 50 μL methanol at the appropriate time points. The incubation plates were centrifuged at 2,500 rpm for 20 minutes at 4° C. to aid protein precipitation. Experimental half-lives were transformed to the corresponding intrinsic clearance values and subsequently scaled to predicted in vivo clearance values, using the well-stirred model as previously described (Houston, Biochemical Pharmacology 47(9): 1469-1479, 1994; Obach, Drug Metabolism and Disposition 27(11): 1350-1359, 1999), with appropriate species-specific scaling factors (Barter et al., Current Drug Metabolism 8(1): 33-45, 2007).
(In general: Liver microsomes are vesicles of endoplasmic reticulum, rich in cytochrome P450 enzymes.)

Data set [8] can be described thus: Liver microsome stability, mouse. The format is in vitro ADME. How it is done:
as §4

The nature of data set [9]: Hepatocyte stability, dog. Format: in vitro ADME, Beagle dog. Here is the method:
as §1, §2

Where [10] appears, read: male, plasma, Beagle dog, IV bolus.
Setting [11] is: liver microsomes, pH 7.4, NADPH, 3 μM.

With `CC(C)N(C[C@H]1O[C@@H](n2cnc3c(N)ncnc32)[C@H](O)[C@@H]1O)[C@H]1C[C@@H](CCc2nc3cc(C(C)(C)C)ccc3[nH]2)C1` [Compound A, (2R,3R,4S,5R)-2-(6-amino-9H-purin-9-yl)-5-((((1r,3S)-3-(2-(5-(tert-butyl)-1H-benzo[d]imidazol-2-yl)ethyl)cyclobutyl)(isopropyl)amino)methyl)tetrahydrofuran-3,4-diol], the “Scaled Hepatic CL from hepatocytes” value in [1] is reported as 7 mL/min/kg. The tumor response entry in [2] (continuous intravenous (IV) infusion, rat xenograft) is given as “complete tumor regressions”. Moreover, the “weight loss or signs of toxicity” value in [2] (rat, in vivo, iv) was “no significant weight loss or signs of toxicity”. The fraction unbound at 5 μM in [3] was 0.125. Further, the Papp B→A (in general, the apparent permeability from the basolateral to the apical side of a cell layer) at 120 min, 10 uM in [4] was 0.3 ×10⁻⁶ cm/s. For the same compound, in [5], the “P-gp substrate (in words)” value is on record as “not a substrate for P-gp”. The Papp A→B – broadly, how fast a substance crosses the layer from the apical side – at 120 min, 10 uM in the data set on P-glycoprotein (MDR1) (MDCK-MDR1, MDCK - MDR1 transfected, Apical-to-basolateral) is less than 0.1 ×10⁻⁶ cm/s. Besides, the Papp B→A at 120 min, 10 uM in the data set with P-glycoprotein (MDR1) (MDCK - MDR1 transfected, Basolateral-to-apical) came out at 0.22 ×10⁻⁶ cm/s. In data set [6] (Beagle dog, IV bolus), this compound yielded a CL of 18.7 ± 1.7 mL/min/kg. In [6] (male, beagle, dog, plasma, iv, Beagle dog, IV bolus), the clearance (commonly the rate of elimination divided by the concentration) is 19 mL/min/kg. The Vd in data set [6] (male, beagle, dog, plasma, iv, Beagle dog, IV bolus, read-out: VDss) was found to be 2.44 L/kg. For the same compound, the Vd in data set [6] (male, beagle, dog, plasma, iv, dog, read-out: Unbound VDss) worked out at 10.4 L/kg. Also, in data set [6] (setting [10]), the AUC(0-inf) (as a rule, the area under the concentration-time curve extrapolated to infinity) turned out to be 1.6 ± 0.15 µM·h; the AUC(0-t) (in general, exposure summed from dosing to a finite time, without extrapolation to infinity) was found to be 1.55 ± 0.16 µM·h; the Cmax (as a rule, the maximum level reached in the sampled fluid or tissue) was 5.06 ± 0.6 µM; the MRT – broadly, a mean duration of stay, worked out from the concentration-time curve – was determined as 2.17 ± 0.89 h. In data set [6] (setting [10]), the Tmax – broadly, the time from dosing to the highest level – came out at 4.98 min and the half-life (as a rule, the time needed for the level to fall by half in the phase considered) was 13.6 h. Also, the microsomal CLint (in general, the rate of metabolic loss divided by the concentration) at 3 μM in data set [7] (setting [11]) is 72 µL/min/mg. In [7] (well-stirred model), the “Scaled Hepatic CL from liver microsomes” value was 45 mL/min/kg. The same compound returned a microsomal CLint at 3 μM in data set [8] (setting [11]) of 150 µL/min/mg. Also, the “Scaled Hepatic CL from liver microsomes” value in data set [8] (well-stirred model) was 78 mL/min/kg. In addition, in [9], the “Scaled Hepatic CL from hepatocytes” value is on record as 21 mL/min/kg. For the same compound, the hepatocyte CLint (in general, the rate of metabolic loss divided by the concentration) at 3 μM in data set [9] (beagle, cryopreserved hepatocytes in suspension, pH 7.4, 3 μM) amounted to 14.9 µL/min/1e6 cells.
